Experimental data taken from ChEMBL document CHEMBL3507680, “University of Dundee, Gates Library screen for HepG2 cell viability”.

assay: Human HepG2 cell viability assay in 384 well format; format: toxicity, cell-based; parameters: dose 125 nL, time 70.5 hour; concentration not given beside the values; details: HepG2 cells, read-out: Inhibition

Row | SMILES | cytotoxicity at 70.5 h
1 | COC(=O)c1ccoc1CN(C1CC1)C1CCS(=O)(=O)C1 (stereo not given) | -0.821%
2 | CC(=O)c1ccc(N2CCN(C(=O)c3cnn4c3OCCC4)CC2)cc1 | 1.33%
3 | CCc1nc(CN(C)C2CCN(Cc3ccc(C#N)cc3F)C2)no1 (stereo not given) | 14.4%
4 | O=S(=O)(c1ccc(F)cc1Cl)N1CCCC1c1ccncc1 (stereo not given) | -6.79%
5 | CNc1nc2c(c(C(=O)N3CCCC3)n1)CN(C(=O)C1CCCC1)CC2 | 15.7%
6 | Cc1nc(C(=O)N2CCOC(c3nc(C(C)C)n[nH]3)C2)c[nH]1 (stereo not given) | -2.01%
7 | O=C(c1cccc(C2CCNC2)c1)N1CCC(c2ccncc2)CC1 (stereo not given) | -18.3%
8 | CCOC(=O)N1C[C@H]2CC[C@@H]1CN(Cc1ccccc1)C2 | -6.47%
9 | COc1ccc(CCC(=O)N2CCNCC2C(=O)N2CCCC2)cc1 (stereo not given) | -6.16%
10 | Cc1nn(-c2ccc(C(=O)O)cc2)c2c1C(c1cccs1)SCC(=O)N2 (stereo not given) | 0.275%
11 | COc1ccccc1N1CCN(C(=O)CCc2nncn2C)C(C)C1 (stereo not given) | 17.3%
12 | COc1cc2c(cc1CNC(=O)C(C)n1ccnc1C(C)C)OCCO2 (stereo not given) | -3.89%
13 | COc1ccc(C(=O)N2CCC(Nc3cccnn3)CC2)c(F)c1 | -3.14%
14 | CCOCCC(=O)Nc1cccc(Cl)c1C(N)=O | -0.685%
15 | Cc1ncsc1CCC(=O)N1CCCC1c1cccnc1 (stereo not given) | -6.95%
16 | CC(C)CCN1CCN(Cc2nc(C3CC3)no2)CC1 | 20.6%
17 | c1ccc2cc(OCCN3CCn4c(nnc4C4CC4)C3)ccc2c1 | 31%
18 | Cn1nccc1-c1ncc2c(c1C(=O)O)CCN(Cc1cccnc1)C2 | -2.63%
19 | CCN(CCn1c(=O)oc2ccccc21)CC1CCOCC1 | -2.32%
20 | O=C([C@@H]1CSCN1)N1CC2(CCNCC2)c2cc(Cl)ccc21 | -3.25%
21 | COC(=O)CN(C(=O)c1cccc(F)c1Cl)c1cccc(C)n1 | 1.83%
22 | CC(c1ccccn1)N(C)Cc1cccc(C(=O)Nc2nccn2C)c1 (stereo not given) | 8.36%
23 | CC(C)c1cnc(CN(C)C2CCN(CCS(C)(=O)=O)C2)o1 (stereo not given) | 2.71%
24 | O=C1CNc2ncnc(Nc3cnn(Cc4ccccc4)c3)c2N1 | 27%
25 | Cc1ccc(CNC(=O)c2nc3c(o2)CN(C(=O)c2cccnc2)C3)o1 | -1.67%
26 | CO[C@H]1CN(C(C)C)C[C@@H]1NC(=O)Nc1ccc(C(F)(F)F)cc1 | -5.18%
27 | CC(C)c1noc(CCCC(=O)N2CCC(Cc3cccnc3)CC2)n1 | -20.7%

Row | SMILES | cytotoxicity at 70.5 h
28 | c1ccc2c(c1)CN(c1ncnc3sc4c(c13)CCNC4)CCO2 | 0.0341%
29 | Cc1cc2c(N)nc(=O)n(CC(=O)Nc3ccccc3)c2s1 | 8.01%
30 | CCc1noc(CN(CC)C(=O)C2CC(=O)N(Cc3ccncc3)C2)n1 (stereo not given) | 35.2%
31 | Cc1ccc(C(=O)N2C[C@@H](OCc3cccnc3)[C@H]3OCCC[C@@H]32)o1 | 10.6%
32 | COc1cc2c(cc1OC)C(=O)C(Sc1nncn1C)C2 (stereo not given) | -4.34%
33 | Cc1noc(CCCC(=O)NC(C)c2cccnc2)n1 (stereo not given) | 0.606%
34 | Cc1cnn(CC2CN(Cc3nc(N)c4ccccc4n3)CCO2)c1 (stereo not given) | 22.8%
35 | O=C(COc1cccc2c1CCC2=O)NCc1ccccc1F | -2.34%
36 | CCCNC(=O)C(C)NC(=O)Nc1ccccc1SC(F)F (stereo not given) | -13%
37 | CCc1nc(C(=O)NCc2ccc(N3CCNC(=O)C3)c(F)c2)c[nH]1 | 5.08%
38 | CN1CC(=O)N(c2cccc(F)c2)CC12CCN(S(=O)(=O)C1CC1)C2 (stereo not given) | -2.84%
39 | Cc1[nH]/c(=N\C(=O)c2csc(NCC(C)C)n2)sc1C | 5.69%
40 | CC(=O)N1CCCC1c1cccc(Oc2ccccc2F)n1 (stereo not given) | -4.13%
41 | NC(=O)C1CCN(CCCc2ccc(C(F)(F)F)cc2)CC1 | 3.34%
42 | O=C1CC(N(C(=O)Cc2csc(-c3ccccc3)n2)C2CC2)C(=O)N1 (stereo not given) | -1.89%
43 | O=C1NCCN1C1CCN(CCOc2cccc3ccccc23)CC1 | 0.611%
44 | Cc1ccc(N2CC[C@H](OCC3CC3)[C@@H]2Cc2cnn(C)c2)nn1 | 0.692%
45 | O=C(NC[C@H]1OC[C@@H](NC2CCCC2)[C@@H]1O)C1CCCC1 | 10.4%
46 | CC(C)N(C)Cc1cncc2c1CCN(C(=O)c1cccc(C#N)c1)C2 | -4.95%
47 | O=C1Nc2ccccc2CN(CC2CCCC2)C12CCNC2 (stereo not given) | -2.12%
48 | CC(C)C(=O)NC1CCN(CCO)CC1 | 4.41%
49 | Cc1ccc2cc(C(=O)NCCn3nc4ccccn4c3=O)[nH]c2c1 | 8.99%
50 | Cc1ccc(S(=O)(=O)N2C[C@H](C3CC3)[C@@H](N)C2)cc1F | -3.15%
51 | COCC(Nc1nc(N(C)C)nc2c1CCNCC2)c1ccccn1 (stereo not given) | 4.09%
52 | Cc1cccn2cc(CN3CCCC(c4noc(C5CC5)n4)C3)nc12 (stereo not given) | 5.44%
53 | CNC(=O)c1cc(-c2ccccc2OC)[nH]n1 | -5.34%
54 | O=C(CSc1nnc[nH]1)NCc1sccc1Br | -5.23%

Row | SMILES | cytotoxicity at 70.5 h
55 | O=S(=O)(CCc1ccccc1)Cc1nc(C2CC2)no1 | -13%
56 | CC(=O)Nc1nc(C(=O)N2CCCC(n3nc(C)nc3C)C2)cs1 (stereo not given) | -10.7%
57 | Cc1csc(C2CCCN(C(=O)c3cnc4n[nH]c(C)c4c3)C2)n1 (stereo not given) | -10.8%
58 | CC(C)(C(N)=O)S(=O)(=O)c1ccc(Br)cc1 | -6.61%
59 | Cc1cc(C)n(CCNCc2cc(-c3ccc(Cl)cc3)c[nH]c2=O)n1 | -3.88%
60 | CCC1CCCCCN1C(=O)c1ccc(N2CCC(O)CC2)cc1 (stereo not given) | -1.83%
61 | Cc1cc(C)c2cc(CNCc3ccc(C)o3)c3nn(C)c(=O)n3c2c1 | -5.87%
62 | CCc1ccccc1OCC(=O)N1CCOCC1c1ncon1 (stereo not given) | 28.4%
63 | O=C(c1ccsc1)N1C[C@@H](CN2CCCC2)[C@@H](CO)C1 | 13.3%
64 | Cc1ccc2oc(N3CCN(CC(=O)NC(C)C)CC3)nc2c1 | 10.6%
65 | CC(C)CNC(=O)c1cc2c(s1)CCN2S(C)(=O)=O | -10.9%
66 | CC(C)N1CCCn2nc(C(=O)NCc3ccccc3F)cc2C1 | -5.27%
67 | Cc1c(Br)cccc1C(=O)NCCC1CCCNC1 (stereo not given) | 12%
68 | CC(C)(C)C(=O)NCC(=O)NC1CC(c2cccc(Cl)c2)C1 (stereo not given) | -1.37%
69 | Cc1cc(C)n(CC2CCCN2C(=O)CCc2ccco2)n1 (stereo not given) | -14.5%
70 | CC(C)N1CCC(c2nccnc2Nc2cnccn2)CC1 | 17.9%
71 | CC(C)n1ccnc1CN1CCCN(C(=O)c2cnn(C)c2)CC1 | -0.464%
72 | O=C([C@H]1CN(CCc2ccccc2)C[C@H]2OCC[C@@H]12)N1CCCO1 | 6.27%
73 | Cn1cc(NC(=O)CNC(=O)N2CCN(c3ccc(F)cc3)CC2)cn1 | -2.76%
74 | c1ccc(Oc2nccnc2C2CCN(C3CCOCC3)CC2)cc1 | -7.7%
75 | Cc1ccc(N2CCCN(C(=O)c3cn(C)c4ccccc34)CC2)nn1 | -7.87%
76 | O=C(NCCCn1cncn1)NCC(c1ccco1)N1CCCCC1 (stereo not given) | -18.7%
77 | Cn1cc([C@@H]2CN(S(=O)(=O)c3cccnc3)C[C@H]2N)c2ccncc21 | 24%
78 | CCn1cnnc1CNC(=O)NCC(C)(CC)N1CCOCC1 (stereo not given) | -9.65%
79 | CNC(=O)[C@@]12CCC3(CCN(C(=O)C(C)C)CC3)[C@@H]1CN(S(C)(=O)=O)C2 | 2.4%
80 | Cc1ccc(C(=O)NC2CCN(S(C)(=O)=O)CC2)c(=O)[nH]1 | -14.3%
